Measurements taken from article PMC4689772, “The Effect of Excipients on the Permeability of BCS Class III Compounds and Implications for Biowaivers” (Pharmaceutical Research, 2015).

Key:
in vitro = details: Caco-2
Procedure: Samples were collected from the donor and receiver chambers at multiple time points and analyzed by LC-MS/MS.
Bidirectional permeability was measured in the absence of excipients only (n = 3 replicates), whereas unidirectional permeability was measured both in the presence and absence of excipients (n = 4 replicates).

[1] = Bidirectional permeability across Caco-2 cell monolayers (no excipients); details: human; for recovery: Caco-2, no excipients, cassette, mean ± SD, n = 3
[2] = Recirculating in situ rat intestinal perfusion (jejunum) in presence and absence of excipients; details: Sprague-Dawley, pH 6.8, Effective permeability coefficient (Peff), mean ± SEM, n = 4
Procedure: (§1) Sprague–Dawley rats (300–350 g) were used to perform closed-loop, in situ intestinal perfusion. Rats were fasted for 12–18 h before the experiment, and water was supplied ad libitum.
(§2) Four rats (n = 4) were used per treatment group, with a total of 17 groups: one control group (assay buffer, no excipients) and three or four treatment groups for each of the five excipients, with a different concentration for each group.
(§3) Rats were anesthetized with an intraperitoneal injection of ketamine/xylazine (1 ml/kg) and placed on a heating pad to maintain normal body temperature. After making a midline incision, the intestines were externalized. A 10-cm segment of the jejunum was tied off, cannulated at both ends to form a loop, and flushed with saline and air. The loop was equilibrated statically with dosing solution for 30 min, then flushed with air and perfused by recirculation (peristaltic pump) with 10 ml dosing solution at 0.2 ml/min. Samples of the perfusate were taken from the reservoir at 15, 30, 45, 60, 75, and 90 min for analysis by LC-MS/MS.

[3] = Unidirectional (A→B) permeability across Caco-2 cell monolayers in presence and absence of excipients; details: human, Caco-2, Apparent permeability coefficient (Papp), mean ± SEM, n = 4
in vivo = details: Sprague-Dawley, rat, pH 6.8, Effective permeability coefficient (Peff), rat jejunum, mean ± SEM, n = 4
Procedure: as §1, §2, §3

CC(C)(C)NCC(O)COc1cccc2c1CC(O)C(O)C2 (stereo not shown) [Nadolol, nadolol]
Papp A→B (in vitro): 33 ± 0.7 ×10⁻⁶ cm/s | Papp A→B ([1]; Caco-2): 0.29 ± 0.16 ×10⁻⁶ cm/s | Papp B→A ([1]; Caco-2): 0.71 ± 0.15 ×10⁻⁶ cm/s | recovery ([1]; Caco-2, A→B Recovery): 83.9 ± 9.1% | recovery ([1]; Caco-2, B→A Recovery): 90.7 ± 12.2% | Papp at 90 min ([2]; other: closed-loop recirculating in situ jejunal perfusion, HPMC 0.06 mg/ml): 40 ± 7 ×10⁻⁶ cm/s | Papp at 90 min ([2]; other: closed-loop recirculating in situ jejunal perfusion, HPMC […]): 7 ± 17 ×10⁻⁶ cm/s | Papp at 90 min ([2]; other: closed-loop recirculating in situ jejunal perfusion, PEG 400 0.06 mg/ml): 24 ± 8 ×10⁻⁶ cm/s | Papp at 90 min ([2]; other: closed-loop recirculating in situ jejunal perfusion, PEG 400 0.30 mg/ml (first run)): 1 ± 1 ×10⁻⁶ cm/s | Papp at 90 min ([2]; other: closed-loop recirculating in situ jejunal perfusion, PEG 400 […]): 25 ± 8 ×10⁻⁶ cm/s | Papp at 90 min ([2]; other: closed-loop recirculating in situ jejunal perfusion, SLS 0.01 mg/ml): 32 ± 15 ×10⁻⁶ cm/s | Papp at 90 min ([2]; other: closed-loop recirculating in situ jejunal perfusion, SLS 0.02 mg/ml): 37 ± 10 ×10⁻⁶ cm/s | Papp at 90 min ([2]; other: closed-loop recirculating in situ jejunal perfusion, SLS 0.04 mg/ml): 1 ± 2 ×10⁻⁶ cm/s | Papp at 90 min ([2]; Povidone […]): 13 ± 1.5 ×10⁻⁶ cm/s | Papp A→B ([3]; Control a (no excipient)): 0.21 ± 0.06 ×10⁻⁶ cm/s | Papp A→B ([3]; Control b (no excipient)): 0.21 ± 0.04 ×10⁻⁶ cm/s | Papp A→B ([3]; D-Lactose 1.0 mg/ml (control set b)): 0.14 ± 0.05 ×10⁻⁶ cm/s | Papp A→B ([3]; D-Lactose 2.0 mg/ml (control set b)): 0.13 ± 0.01 ×10⁻⁶ cm/s | Papp A→B ([3]; HPMC 0.06 mg/ml (control set a)): 0.14 ± 0.05 ×10⁻⁶ cm/s | Papp A→B ([3]; HPMC 1.0 mg/ml (control set b)): 0.13 ± 0.05 ×10⁻⁶ cm/s | Papp A→B ([3]; HPMC 2.0 mg/ml (control set b)): 0.11 ± 0.02 ×10⁻⁶ cm/s | Papp A→B ([3]; PEG 400 0.06 mg/ml (control set a)): 0.13 ± 0.01 ×10⁻⁶ cm/s | Papp A→B ([3]; PEG 400 […] (control set a)): 0.14 ± 0.04 ×10⁻⁶ cm/s | Papp A→B ([3]; PEG 400 […] (control set b)): 0.27 ± 0.04 ×10⁻⁶ cm/s | Papp A→B ([3]; Povidone 0.06 mg/ml (control set a)): 0.09 ± 0.02 ×10⁻⁶ cm/s | Papp A→B ([3]; Povidone 0.2 mg/ml (control set b)): 0.15 ± 0.05 ×10⁻⁶ cm/s | Papp A→B ([3]; SLS 0.01 mg/ml (control set a)): 0.23 ± 0.07 ×10⁻⁶ cm/s | Papp A→B ([3]; SLS 0.02 mg/ml (control set a)): 0.31 ± 0.05 ×10⁻⁶ cm/s | Papp A→B ([3]; SLS 0.04 mg/ml (control set a)): 0.31 ± 0.1 ×10⁻⁶ cm/s

Cc1cc(=O)n(-c2ccccc2)n1C [Antipyrine, antipyrine]
Papp at 90 min (in vivo; Control (no excipient)): 143 ± 17 ×10⁻⁶ cm/s | Papp at 90 min (in vivo; HPMC 0.06 mg/ml): 168 ± 35 ×10⁻⁶ cm/s | Papp at 90 min (in vivo; PEG 400 0.06 mg/ml): 117 ± 22 ×10⁻⁶ cm/s | Papp at 90 min (in vivo; PEG 400 0.30 mg/ml (first run)): 82 ± 15 ×10⁻⁶ cm/s | Papp at 90 min (in vivo; PEG 400 0.30 mg/ml, second run): 153 ± 18 ×10⁻⁶ cm/s | Papp at 90 min (in vivo; PEG 400 […]): 90 ± 26 ×10⁻⁶ cm/s | Papp at 90 min (in vivo; Povidone 0.06 mg/ml): 133 ± 42 ×10⁻⁶ cm/s | Papp at 90 min (in vivo; SLS 0.01 mg/ml): 175 ± 23 ×10⁻⁶ cm/s | Papp at 90 min (in vivo; SLS 0.02 mg/ml): 93 ± 26 ×10⁻⁶ cm/s | Papp at 90 min (in vivo; SLS 0.04 mg/ml): 108 ± 18 ×10⁻⁶ cm/s | Papp at 90 min (in vivo; SLS […]): 157 ± 46 ×10⁻⁶ cm/s

Nc1nc2c(ncn2COCCO)c(=O)[nH]1 [Acyclovir, acyclovir]
Papp A→B (in vitro): 29.8 ± 1.8 ×10⁻⁶ cm/s | recovery ([1]; Caco-2, A→B Recovery): 82.2 ± 8.6% | recovery ([1]; Caco-2, B→A Recovery): 94.9 ± 12.2%
